The results in this text go back to patent US7446092B2, “Glycogen synthase kinase-3 inhibitors” (Tel Aviv University Future Technology Development L.P., priority 2002, dated 2008).

One experiment has as its target GSK-3β (Oryctolagus cuniculus, UniProt A0A5F9DUX8). Kind of experiment: In vitro GSK-3 inhibition assay (phosphorylation of PGS-1 peptide substrate). Format: biochemical, rabbit. The settings on record: for Inhibitor functionality: GSK-3 inhibitor; for GSK-3 inhibition (in words): in vitro, cpL803-mts tested at 0-300 μM. How it is done: In vitro inhibition assays: Purified recombinant rabbit GSK-3β (Eldar-Finkelman et al., 1996) was incubated with peptide substrate PGS-1 ([…](p)EDEEE) (SEQ ID NO:15) and with a peptide inhibitor at indicated concentrations. The reaction mixture included Tris 50 mM (pH=7.3), 10 mM MgAc, ^32P[γ-ATP] (100 μM), 0.01% β-mercaptoethanol, and was incubated for 10 minutes at 30° C. Reactions were spotted on phosphocellulose paper (p81), washed with 100 mM phosphoric acid, and counted for radioactivity (as described in Eldar-Finkelman et al., 1996).

A further experiment addresses T1, Cdc2 (Homo sapiens, UniProt P06493).
T1 construct: purchased New England BioLabs (Beverly, Mass.)
Kind of experiment: Effect of L803 on Cdc2 activity (histone H1 substrate). Format: biochemical. The following applies: L803 200 μM. The method, then:
The effect of L803 (200 μM) on other protein kinases was tested by incubating Cdc2 (1 unit) with a reaction mixture similar to that described hereinabove and containing histone H1 substrate (5 μg). The reactions were boiled with SDS sample buffer, separated on gel electrophoresis and autoradiographed.

Experiment [1] in a line: Glucose tolerance test in fasted C57Bl/6J mice. The settings on record: vs control peptide. It counts as in vivo. How it is done: Glucose tolerance tests: Glucose tolerance tests were performed in overnight fasted C57Bl/6J mice (12 hours). L803-mts or LE803-mts were administrated intraperitoneally (i.p.) to mice (400 nmol peptide), glucose (1 gram/kg) was injected i.p. one hour thereafter and blood samples were collected from tail vein at various time points. Blood glucose levels were immediately measured by Sugar Accutrend Sensor,(Roche, Germany)).

Another experiment deals with glycogen synthase. Kind of experiment: Glycogen synthase activity in HEK 293 cells. It counts as cell-based. An excerpt:
Glycogen synthase activity in HEK 293 cells: To test the impact of the conjugates of the present invention in intact cells, the membrane preamble L803 inhibitor L803-mts (N-Myristol-GKEAPPAPPQS(p)P) (SEQ ID NO:16) and two similarly modified respective controls LE803-mts (N-Myristol-GKEAPPAPPQSEP) (SEQ ID NO:17) and LS803-mts (N-Myristol-GKEAPPAPPQSP) (SEQ ID NO:18), in which the phosphorylated serine was replaced with glutamic acid (that usually mimics a phosphorylated group) or a serine residue, respectively, were designed and synthesized.
HEK 293 cells were grown in 10 cm plates with Dulbecco's modified Eagle medium (DMEM) supplemented with 10% fetal calf serum (FCS). On the day of the experiment, cells were incubated with low glucose medium supplemented with 0.5% FCS for 1 hour, followed by the addition of the conjugate L803-mts or its respective controls LE803-mts and LS803-mts at various concentrations, for additional 2.5 hours. A vehicle control of DMSO (0.1% DMSO) was also tested. […] The reactions were then spotted on ET31 (Whatman) papers, washed with 66% ice-cold ethanol, and counted for radioactivity. Glycogen synthase assays were measured in the presence of 0.1 mM glucose-6-phosphate (G6P). […]

Another experiment deals with β-catenin. Kind of experiment: β-catenin levels in mouse hippocampus extracts (Western blot). Format: in vivo. How it is done:
(§1) Forced Swimming Test (FST): C57BL/6J mice were housed in individual cages with free access to water in a temperature-controlled facility with a 12 hours light/dark cycle. Animals at age 14-16 weeks were used, and each experimental group consisted of randomly chosen 10-20 mice. At day one, mice were subjected to pre-FST (see below). At day two, mice were anesthetized with halothane (inhalation) and were unilaterally intracerebroventricularly injected (i.c.v., 1 μl of 25 mM stock solution) with L803-mts or a scrambled control peptide (cpL803-mts). Animals were subjected to FST once 1, 3, and 12 hours after reagents were administrated. The FST procedure used was similar to that initially described by Porsolt et al. (1977). Briefly, animals were placed at day one in a large cylinder (30 cm×45 cm) of 25° C. water for a 15-minutes period. At day two (24 hours later), treated mice were placed in the cylinder of water for a 6-minutes period. The duration of immobility was monitored during the last 4 minutes of the 6-minute test. Immobility period was defined as the time spent by the animal floating in the water without struggling and making only those movements necessary to keep its head above the water. All testing took place between 11:00 and 15:00. After completion the FST, mice were scarified, and hippocampuses were removed, frozen in liquid nitrogen, and stored at −80° C. Animal care followed the institutional animal care and used committee.
Hippocampus extracts: Hippocampus tissue was homogenized with ice cold buffer H (50 mM β-glycerophosphate pH=7.3, 10% glycerol, 1 mM EGTA, 1 mM EDTA, 10 mM NaF, 5 mM NaPPi, 25 μg/ml leupeptin, 25 μg/ml aprotinin, 500 nM microcystine LR and 1% Triton X100). […] Equal amounts of proteins (30 μg) as determined by Bradford analysis (Bradford, […]) were boiled with Laemmli sample buffer and subjected to gel electrophoresis (10% polyacrylamide gel), transferred to nitrocellulose membranes, and immunoblotted with specific monoclonal antibodies for β-catenin (Transduction laboratories, USA).
(In western blotting, separated proteins are transferred to a membrane and probed.)

Another experiment has as its system mouse adipocytes. Kind of experiment: Glucose uptake in isolated adipocytes. Format: cell-based. The method, then: Glucose uptake in isolated adipocytes: Mice adipocytes were isolated from epididymal fat pad by digestion with 0.8 mg/ml collagenase (Worthington Biochemical) as described previously (Lawrence et al., 1977). Digested fat pads were passed through nylon mesh and cells were washed 3 times with Krebs-bicarbonate buffer (pH=7.4) containing 1% bovine serum albumin (Fraction V, Boehringer Mannheim, Germany), 10 mM HEPES (pH=7.3), 5 mM glucose and 200 nM adenosine. Cells were incubated with L803-mts or LE803-mts at indicated concentrations for 1 hour, followed by addition of 2-deoxy [^3H] glucose (0.5 μci/vial) for 10 minutes. The assay was terminated by centrifugation of cells through dinonylphthalate (ICN, USA). ^3H was thereafter quantitated by liquid scintillation analyzer (Packard). Nonspecific uptake of 2-deoxy-[^3H] glucose was determined by the addition of cytochalasin B (50 μM) 30 minutes prior to the addition of radioactive material.
In another set of experiments, adipocytes were treated with various concentrations of L803-mts 1 hour before addition of sub-optimal concentration of insulin (5 nM). Glucose uptake was determined as described above.

Experiment [2] can be described thus: Forced swimming test (FST). Format: in vivo, C57BL/6J mice. The following applies: vs control-treated animals. The method, then:
as §1

Another experiment concerns the target T2, GSK-3 (Oryctolagus cuniculus, UniProt G1T8E2).
T2 construct: made in house
Kind of experiment: In vitro test of peptides as GSK-3 substrates. The following applies: S2(p) of p9CREB replaced. It counts as biochemical, rabbit.

Square brackets hold non-standard residues; d marks the D form. Ends that are not written are not given here. Peptide text beside a SMILES is read from it. * marks the point of attachment. pY = N[C@@H](Cc1ccc(OP(=O)(O)O)cc1)C(=O)O; Myristoyl = CCCCCCCCCCCCCC(=O)*; pS = N[C@@H](COP(=O)(O)O)C(=O)O

Sequence of GSK-3β (A0A5F9DUX8 1-420): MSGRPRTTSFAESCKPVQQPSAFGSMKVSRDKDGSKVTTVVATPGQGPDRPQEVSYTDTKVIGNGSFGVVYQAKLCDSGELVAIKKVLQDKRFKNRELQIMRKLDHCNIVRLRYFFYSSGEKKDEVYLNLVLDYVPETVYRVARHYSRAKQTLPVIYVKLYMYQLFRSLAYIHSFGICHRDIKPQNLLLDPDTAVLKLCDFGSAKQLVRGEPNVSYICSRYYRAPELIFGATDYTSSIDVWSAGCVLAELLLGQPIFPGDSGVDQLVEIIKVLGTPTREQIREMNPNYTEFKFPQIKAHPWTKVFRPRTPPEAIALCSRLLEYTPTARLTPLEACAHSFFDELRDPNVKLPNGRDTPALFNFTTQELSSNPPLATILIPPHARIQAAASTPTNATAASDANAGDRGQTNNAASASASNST
T2 sequence (G1T8E2 1-432): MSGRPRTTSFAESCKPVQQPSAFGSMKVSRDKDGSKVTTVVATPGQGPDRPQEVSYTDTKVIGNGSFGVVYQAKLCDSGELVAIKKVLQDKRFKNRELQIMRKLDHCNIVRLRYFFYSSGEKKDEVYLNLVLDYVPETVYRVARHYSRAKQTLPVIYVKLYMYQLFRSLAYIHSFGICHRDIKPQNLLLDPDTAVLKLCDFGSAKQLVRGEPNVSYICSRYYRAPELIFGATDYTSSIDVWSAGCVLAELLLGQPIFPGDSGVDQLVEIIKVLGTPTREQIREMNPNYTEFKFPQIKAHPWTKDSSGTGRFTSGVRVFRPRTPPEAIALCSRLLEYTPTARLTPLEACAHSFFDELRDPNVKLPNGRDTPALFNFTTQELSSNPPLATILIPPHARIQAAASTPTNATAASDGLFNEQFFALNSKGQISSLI
T1 sequence (P06493 whole entry): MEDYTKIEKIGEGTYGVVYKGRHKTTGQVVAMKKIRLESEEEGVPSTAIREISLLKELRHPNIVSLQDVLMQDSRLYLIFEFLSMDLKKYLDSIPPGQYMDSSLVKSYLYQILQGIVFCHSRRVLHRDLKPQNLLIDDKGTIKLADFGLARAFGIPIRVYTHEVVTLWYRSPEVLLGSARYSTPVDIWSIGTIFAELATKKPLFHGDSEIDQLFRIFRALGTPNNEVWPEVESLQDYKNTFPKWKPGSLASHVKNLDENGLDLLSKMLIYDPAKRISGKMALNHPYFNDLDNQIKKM
T1 sequence (P14635 whole entry partner): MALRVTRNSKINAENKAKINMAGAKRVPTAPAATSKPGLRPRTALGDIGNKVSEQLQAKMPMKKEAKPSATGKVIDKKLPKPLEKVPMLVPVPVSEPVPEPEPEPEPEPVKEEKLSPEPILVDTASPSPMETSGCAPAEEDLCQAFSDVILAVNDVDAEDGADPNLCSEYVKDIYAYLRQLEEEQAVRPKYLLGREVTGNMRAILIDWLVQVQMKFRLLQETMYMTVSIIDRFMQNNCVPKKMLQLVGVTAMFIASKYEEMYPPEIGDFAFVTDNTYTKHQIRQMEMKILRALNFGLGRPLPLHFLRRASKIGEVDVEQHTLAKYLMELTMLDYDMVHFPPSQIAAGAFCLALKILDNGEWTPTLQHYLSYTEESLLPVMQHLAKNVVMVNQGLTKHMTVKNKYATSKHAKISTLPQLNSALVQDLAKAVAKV

As for `CC[C@H](C)[C@H](N)C(=O)N[C@@H](CC(C)C)C(=O)N[C@@H](C)C(=O)N[C@@H](CCCNC(=N)N)C(=O)N[C@@H](CCCNC(=N)N)C(=O)N1CCC[C@H]1C(=O)N[C@@H](COP(=O)(O)O)C(=O)N[C@@H](Cc1ccc(O)cc1)C(=O)N[C@@H](CCCNC(=N)N)C(=O)O` [Peptide 6, ILARRPS(p)YR] (H-ILARRP[pS]YR-OH), at GSK-3β, the Inhibitor functionality entry was “* (weak inhibition activity (IC50 > 800 μM))” and the “GSK-3 inhibition (in words)” value is listed as “eliminated the inhibitory capacity”.

For the compound `C[C@H](NC(=O)[C@H](CCC(=O)O)NC(=O)[C@@H](N)CCCCN)C(=O)N1CCC[C@H]1C(=O)N1CCC[C@H]1C(=O)N[C@@H](C)C(=O)N1CCC[C@H]1C(=O)N1CCC[C@H]1C(=O)N[C@@H](CCC(N)=O)C(=O)N[C@@H](COP(=O)(O)O)C(=O)N1CCC[C@H]1C(=O)O` [Peptide 9, KEAPPAPPQS(p)P] (H-KEAPPAPPQ[pS]P-OH; N-terminus and C-terminus assumed), the “Inhibition of cdc2 (in words)” value on Cdc2 is on record as “not inhibited”.

With `C[C@H](NC(=O)[C@@H]1CCCN1)C(=O)N1CCC[C@H]1C(=O)N1CCC[C@H]1C(=O)N[C@@H](CCC(N)=O)C(=O)N[C@@H](COP(=O)(O)O)C(=O)N1CCC[C@H]1C(=O)O` [Peptide 12, PAPPQS(p)P] (H-PAPPQ[pS]P-OH), on GSK-3β, the Inhibitor functionality result is listed as “* (weak inhibition activity (IC50 > 800 μM))”.

Turning to `CCCCCCCCCCCCCC(=O)NCC(=O)N[C@@H](CCCCN)C(=O)N[C@@H](CCC(=O)O)C(=O)N[C@@H](C)C(=O)N1CCC[C@H]1C(=O)N1CCC[C@H]1C(=O)N[C@@H](C)C(=O)N1CCC[C@H]1C(=O)N1CCC[C@H]1C(=O)N[C@@H](CCC(N)=O)C(=O)N[C@@H](COP(=O)(O)O)C(=O)N1CCC[C@H]1C(=O)O` [Peptide L803-mts, N-Myristol-GKEAPPAPPQS(p)P] (Myristoyl-GKEAPPAPPQ[pS]P-OH; C-terminus assumed), in experiment [1] (400 nmol i.p. one hour before glucose 1 gram/kg), the “Reduction in the blood glucose peak and in glucose levels 1 and 2 hours after glucose” value was 20%. In experiment [1] (400 nmol i.p.), the “Glucose tolerance (in words)” value is “better glucose tolerance”. Besides, in the experiment with glycogen synthase, the “Concentrations inhibiting endogenous GSK-3” value was in the range of 10 to 40 µM. Further, the “Increase of glycogen synthase activity” value in the experiment on glycogen synthase (2.5 hours, compared with cells treated with LE803-mts or LS803-mts) amounted to 2.5 fold. Also, the figures for the “Increase in β-catenin levels” value with β-catenin (1 hour after i.c.v. L803-mts), in the experiment on β-catenin (3 hours after i.c.v. L803-mts) and with β-catenin (12 hours post administration) were 20%, 30% and 50%, respectively. The “Effect on insulin-induced glucose uptake (in words)” value with mouse adipocytes (L803-mts 1-10 μM followed by sub-optimal insulin (5 nM)) is reported as “additive effect”. Also, the “Increase of 2-deoxyglucose incorporation” value in the experiment on mouse adipocytes (mouse adipocytes, no insulin, compared with cells treated with LE803-mts or LS803-mts) is reported as “approximately 2.5 fold”. Moreover, the entries for the “Shortening of immobility time” value in experiment [2] (FST 1 hour after i.c.v. injection), in experiment [2] (FST 3 hours after i.c.v. injection) and in experiment [2] (FST 12 hours after i.c.v. injection) were 37%±3.7%, 44%±5.7% and 16%±0.6%, respectively.

ILSRPPEYR [Peptide 3]: the “Phosphorylation by GSK-3 (in words)” value in the experiment with GSK-3 is on record as “eliminated the capacity of GSK-3 to phosphorylate these peptides”.

On to “ILSRPPY(p)YR (ILSRPP[pY]YR; also: phosphotyrosine, Y7 or Y8 (written PPY(p)YR)) [Peptide 4]”, for which the “Phosphorylation by GSK-3 (in words)” value in the experiment with GSK-3 is “eliminated the capacity of GSK-3 to phosphorylate these peptides”.

Consider KEEPPAPPQEP [Peptide 11], for which, in the experiment with GSK-3β, the “GSK-3 inhibition (in words)” value is “inactive inhibitors”.

For KEEPPAPPQSP [Peptide 10], the “GSK-3 inhibition (in words)” value with GSK-3β is “inactive inhibitors”.

On to “N-Myristol-GKEAPPAPPQSEP (Myristoyl-GKEAPPAPPQSEP) [LE803-mts, control conjugate, phosphorylated serine replaced with glutamic acid, reference compound]”, for which, in the experiment with GSK-3β, the “GSK-3 inhibition (in words)” value is recorded as “do not inhibit”.

On to “N-Myristol-GKEAPPAPPQSP (Myristoyl-GKEAPPAPPQSP) [LS803-mts, control conjugate, phosphorylated serine replaced with serine, reference compound]”, for which the “GSK-3 inhibition (in words)” value with GSK-3β was “do not inhibit”.

In the case of insulin [reference compound], the “Maximum stimulation of glucose uptake by insulin” value with mouse adipocytes (mouse adipocytes, insulin 10 nM, data not shown) is on record as 3 fold.
